Like-named read-outs stand apart in the source and are kept apart here.
Experiments:
MDA-MB-231 cells = experiment: MTT viability assay, MDA-MB-231 cells; format: cell-based; conditions: MTT, 48 h incubation, mean, n = 3, read-out: IC50 against MDA-MB-231 cells
Description: (§1) The anticancer activities of the exemplary compounds listed in Example 1 were tested against human cervix Hela cells, mammary breast cancer MDA-MB-231 cells, human hepatocellular HepG2 cells, human colorectal HCT116 cells, mammary ductal T47D cells, non-cancerous NIH3T3 cells, dog's kidney MDCK cells, and mouse brain bEnd.3 cells, respectively.

HEK293 cells = experiment: MTT viability assay, HEK293 cells; format: cell-based; conditions: mean, n = 3, read-out: IC50 against HEK293 cells
MDCK cells = experiment: MTT viability assay, MDCK cells; format: cell-based, dog; conditions: 48 h incubation, mean, n = 3, read-out: IC50 against MDCK cells
Description: as §1

Hela cells = experiment: MTT viability assay, Hela cells; format: cell-based, human; conditions: 48 h incubation, mean, n = 3, read-out: IC50 against Hela cells
Description: as §1

T47D cells = experiment: MTT viability assay, T47D cells; format: cell-based; conditions: MTT, 48 h incubation, mean, n = 3, read-out: IC50 against T47D cells
Description: as §1

bEnd.3 cells = experiment: MTT viability assay, bEnd.3 cells; format: cell-based, mouse; conditions: mean, n = 3, read-out: IC50 against bEnd.3 cells
Description: as §1

[1] = tested on: MDA-MB-231 xenograft tumors; experiment: Mouse xenograft breast tumors (MDA-MB-231); format: in vivo, Nude mice; conditions: mouse, in vivo
Description: FIG. 12A is a graph showing the tumor volume of xenograft tumors versus time after s.c. injection of DMSO, PTX, compound 37b, or compound 48. Nude mice were injected s.c. with MDA-MB-231 cells (10^6) and randomly allocated to one of the six treatment groups (n=5): (i) DMSO, (ii) Paclitaxel (PTX), 5 mg/kg, (iii) compound 37b, 5 mg/kg, (iv) compound 37b, 10 mg/kg, (v) compound 48, 5 mg/kg, or (vi) compound 48, 10 mg/kg. When control animals (DMSO) began to appear tumor ulceration (25 days), all animals in the experiment were sacrificed and photographed.
FIG. 12B are photographs of the tumor from sacrificed animals of different treatment groups after 25 days. FIG. 12C is a graph showing the tumor weight of xenograft tumors versus time after s.c. injection of DMSO, PTX, compound 37b, or compound 48. Data are shown as mean±SEM. * P≤0.05 versus DMSO group. FIG. 12D are photographs showing the morphological observation of mice tissue treated with DMSO, paclitaxel, compound 37b, or compound 48 with H&E staining on heart, liver, kidney, lungs, and spleen tissues (200×).

NIH3T3 cells = experiment: MTT viability assay, non-cancerous NIH3T3 cells; format: cell-based
Description: as §1

HeyA8 cells = experiment: CellTiter-Glo viability, adherent HeyA8 ovarian cancer cells; format: cell-based; conditions: 5 μM
[2] = tested on: lipid ROS in MDA-MB-231 cells; experiment: C11-BODIPY lipid ROS detection in MDA-MB-231 cells; format: cell-based; conditions: 48 5 μM, 37b 1 μM, RSL3 0.5 μM; 6 h incubation
Description: FIG. 11 is a bar graph showing the detection of lipid ROS with compound 48 (5 μM), compound 37b (1 μM), or RSL3 (0.5 μM) by BODIPY 581/591 C11 after 6 h incubation in MDA-MB-231 cells. **P≤0.01 versus DMSO group. Data are plotted as the mean±SD, n=3 biologically independent samples. All P values were determined using two-tailed Student's t-test.
Since lipid peroxidation is the evidence about ferroptosis, C11-BODIPY probe is used to validate the lipid ROS generated by tetraoxanes. It is a ratiometric membrane-targeted probe which changes the emission from 590 nm to 510 nm upon the detection of lipid ROS. Here, MDA-MB-231 cells were treated with 48, 37b and RSL3, respectively. The lipid ROS levels were quantified by flow cytometry. Untreated group gave weak signal in FL1 channel (FIG. 11).

HepG2 cells = experiment: MTT viability assay, HepG2 cells; format: cell-based, human; conditions: MTT, 48 h incubation, mean, n = 3, read-out: IC50 against HepG2 cells
Description: as §1

HCT116 cells = experiment: MTT viability assay, HCT116 cells; format: cell-based, human; conditions: MTT, 48 h incubation, mean, n = 3, read-out: IC50 against HCT116 cells
Description: as §1

[3] = Homo sapiens, HEK293, 48 h incubation
[4] = MTT, 48 h incubation, mean, n = 3, read-out: IC50 against NIH3T3 cells

Question: How did the IC50 (MDA-MB-231 cells; Homo sapiens, MDA-MB-231, 48 h) turn out when `CN(C)CCCNC(=O)OC1CCC2(CC1)OOC1(OO2)C2CC3CC(C2)CC1C3` (centres unmarked) [Compound 30a, (1r,3r,5r,7r)-dispiro[adamantane-2,3′-[1,2,4,5]tetraoxane-6′,1″-cyclohexan]-4″-yl(3-(dimethylamino)propyl)carbamate] was run?
Answer: Its IC50 is 14400 nM.

Question: And the IC50 (HEK293 cells; [3])?
Answer: The IC50 was 2500 nM.

Question: And the IC50 (MDCK cells; Canis lupus familiaris, MDCK)?
Answer: The IC50 was 42.8 µM.

Question: For `O=C(CC1CCC2(CC1)OOC1(OO2)C2CC3CC(C2)CC1C3)NCCC[P+](c1ccccc1)(c1ccccc1)c1ccccc1` (centres unmarked) [Compound 6b, (3-(2-((1r,3r,5r,7r)-dispiro[adamantane-2,3′-[1,2,4,5]tetraoxane-6′,1″-cyclohexan]-4″-yl)acetamido)propyl)triphenylphosphonium bromide], which IC50 (MDA-MB-231 cells) is on record?
Answer: The IC50 was 2600 nM.

Question: What about the IC50 (Hela cells) of the same compound?
Answer: Its IC50 is 2200 nM.

Question: And the IC50 (T47D cells)?
Answer: Its IC50 is 4.4 µM.

Question: And the IC50 (HEK293 cells; 48 h incubation)?
Answer: The IC50 was 1600 nM.

Question: What about the IC50 (MDCK cells) of the same compound?
Answer: Its IC50 is 18.1 µM.

Question: What about the IC50 (bEnd.3 cells; 48 h incubation) of the same compound?
Answer: The IC50 was 12.3 µM.

Question: Which “abnormal behavior or weight loss during treatment period” value [1] does the source give for `CC(C)(C)C1CCC2(CC1)OOC1(CCC(OC(=O)Oc3ccc([N+](=O)[O-])cc3)CC1)OO2` (centres unmarked) [Compound 37c, 12-(tert-butyl)-7,8,15,16-tetraoxadispiro[5.2.59.26]hexadecan-3-yl(4-nitrophenyl) carbonate] here?
Answer: The value was “no abnormal behavior or weight loss”.

Question: Which IC50 (MDA-MB-231 cells) does the source give for `COC(=O)c1ccc([C@@H]2c3[nH]c4ccccc4c3C[C@@H](C(=O)OC)N2C(=O)CCl)cc1` [RSL3, reference compound] here?
Answer: Its IC50 is 41 nM.

Question: And the “selectivity between non-cancerous cells and cancer cells” value (NIH3T3 cells)?
Answer: Its value is “more cytotoxic to non-cancerous cells than cancer cells”.

Question: And the IC50 (NIH3T3 cells; [4])?
Answer: Its IC50 is 28 nM.

Question: What about the IC50 (NIH3T3 cells; text b507, read-out: IC50 on NIH3T3 cells) of the same compound?
Answer: The IC50 was 28.3 ± 8.6 nM.

Question: And the “elimination of adherent HEYA8 cells” value (HeyA8 cells)?
Answer: Its value is “eliminate the majority of adherent HEYA8 cells”.

Question: And the “lipid ROS (BODIPY 581/591 C11, FL1, flow cytometry)” value [2]?
Answer: Its value is “fluorescence enhancement in FL1 was observed”.

Question: Which results are given for `O=C(NCCC[P+](c1ccccc1)(c1ccccc1)c1ccccc1)OC1CCC2(CC1)OOC1(OO2)C2CC3CC(C2)CC1C3` (centres unmarked) [Compound 30b, (3-(((((1r,3r,5r,7r)-dispiro[adamantane-2,3′-[1,2,4,5]tetraoxane-6′,1″-cyclohexan]-4″-yl)oxy)carbonyl)amino)propyl)triphenylphosphonium bromide]?
Answer: IC50 (MDA-MB-231 cells): 530 nM; IC50 (Hela cells): 2400 nM; IC50 (HEK293 cells; 48 h incubation): 1000 nM; IC50 (HepG2 cells): 1200 nM; IC50 (NIH3T3 cells; [4]): 5800 nM; IC50 (HCT116 cells): 1400 nM; IC50 (MDCK cells): 5.8 µM

Question: With `CN(C)CCCNC(=O)OC1CCC2(CC1)OOC1(CCC(C(C)(C)C)CC1)OO2` (centres unmarked) [Compound 37a, 12-(tert-butyl)-7,8,15,16-tetraoxadispiro[5.2.59.26]hexadecan-3-yl(3-(dimethylamino)propyl)carbamate] as the compound, how does the IC50 (MDA-MB-231 cells; Homo sapiens, MDA-MB-231, 48 h) read?
Answer: Its IC50 is 2000 nM.

Question: And the IC50 (Hela cells; Homo sapiens, HeLa)?
Answer: Its IC50 is 3900 nM.

Question: And the IC50 (T47D cells; Homo sapiens, T47D)?
Answer: The IC50 was 2.2 µM.

Question: And the IC50 (HEK293 cells; [3])?
Answer: The IC50 was 800 nM.

Question: And the IC50 (HepG2 cells; Homo sapiens, HepG2)?
Answer: The IC50 was 2000 nM.

Question: And the IC50 (NIH3T3 cells; Mus musculus, NIH3T3, MTT, 48 h incubation, mean, n = 3, read-out: IC50 against NIH3T3 cells)?
Answer: The IC50 was 1700 nM.

Question: And the IC50 (HCT116 cells; Homo sapiens, HCT-116)?
Answer: Its IC50 is 4600 nM.

Question: And the IC50 (MDCK cells; Canis lupus familiaris, MDCK)?
Answer: Its IC50 is 23.7 µM.

Question: What about the IC50 (bEnd.3 cells; Mus musculus, BEND3, 48 h incubation) of the same compound?
Answer: The IC50 was 10.9 µM.

From patent US20240101584A1, “TARGETED DELIVERY OF 1,2,4,5 TETRAOXANE COMPOUNDS AND THEIR USES” (Westlake University, priority 2021, published 2024)
